Assay results from patent publication US20260062376A1, “SQUARAMIDE DERIVATIVES AS CB1 ALLOSTERIC MODULATORS” (RESEARCH TRIANGLE INSTITUTE, priority 2022, published 2026).
Values belong to the compound of their own block, whether it stands above or below them.

What was measured:
[1] = Metabolic stability in rat liver microsomes; type: in vitro ADME; details: for microsomal CLint / half-life: pH 7.4, 0.5 mg/mL protein; for microsomal CLint: read-out: Rat Liver microsome Clearance; for half-life: read-out: Rat Liver microsome T1/2
Procedure: Metabolic stability assessment: Compounds were incubated with rat liver microsomes at 37° C. for a total of 45 minutes. The reaction was performed at pH 7.4 in 100 mM potassium phosphate buffer containing 0.5 mg/mL of rat liver microsomal protein. Phase I metabolism was assessed by adding NADPH to a final concentration of 1 mM and collecting samples at time points 0, 5, 15, 30 and 45 minutes. All collected samples were quenched 1:1 with ice-cold stop solution (1 μM labetalol and 1 μM glyburide in acetonitrile) and centrifuged to remove precipitated protein. Resulting supernatants were further diluted 1:4 with acetonitrile:water (1:1). Samples were analyzed by LC/MS/MS and calculations for half-life, and in-vitro clearance were accomplished using Microsoft Excel (2007).

Plasma protein binding = type: in vitro ADME
Human CB1 [2] = target: T1, Human CB1 (Homo sapiens (Human), UniProt P21554); experiment: Calcium mobilization assay (antagonist mode vs CP55,940); type: cell-based; details: CHO-RD-HGA16 cells stably expressing human CB1; against EC50 concentration of CP55,940; mean ± SEM, at least three experiments
T1 sequence (P21554 whole entry): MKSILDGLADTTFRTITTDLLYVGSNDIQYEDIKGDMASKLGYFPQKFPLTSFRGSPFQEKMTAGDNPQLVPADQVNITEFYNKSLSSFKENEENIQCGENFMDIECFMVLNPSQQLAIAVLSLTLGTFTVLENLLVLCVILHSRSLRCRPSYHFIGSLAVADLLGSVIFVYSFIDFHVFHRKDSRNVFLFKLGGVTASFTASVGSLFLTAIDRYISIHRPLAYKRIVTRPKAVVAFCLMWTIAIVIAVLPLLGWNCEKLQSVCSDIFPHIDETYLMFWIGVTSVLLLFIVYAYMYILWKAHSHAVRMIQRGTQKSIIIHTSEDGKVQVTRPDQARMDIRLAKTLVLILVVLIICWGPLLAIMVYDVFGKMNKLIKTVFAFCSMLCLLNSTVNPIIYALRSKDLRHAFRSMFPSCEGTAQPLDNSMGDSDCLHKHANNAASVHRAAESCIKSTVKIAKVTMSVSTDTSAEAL
Procedure: Calcium Mobilization Assay: CHO-RD-HGA16 cells (Molecular Devices, San Jose, California, United States of America) stably expressing the human CB1 receptor were plated into 96-well black-walled assay plates at 25,000 cells/well in 100 μL of Ham's F12 (supplemented with 10% fetal bovine serum, 100 units of penicillin/streptomycin, and 100 μg/mL Normocin) and incubated overnight at 37° C., 5% CO2. Calcium 5 dye (Molecular Devices, San Jose, California, United States of America) was reconstituted according to the manufacturer's instructions. The reconstituted dye was diluted 1:40 in prewarmed (37° C.) assay buffer (lx HBSS, 20 mM HEPES, 2.5 mM probenecid, pH 7.4 at 37° C.). Growth medium was removed, and the cells were gently washed with 100 μL of prewarmed (37° C.) assay buffer. […] After the pretreatment incubation period, the plate was read with a FLIPR Tetra (Molecular Devices, San Jose, California, United States of America). […] Relative fluorescence units (RFU) were plotted against the log of compound concentrations. […] Test compound RFUs were compared to the CP55,940 Emax RFUs to generate % Emax values. For the CB2 agonist and antagonist assays, the same procedures were followed except that stable human CB2—CHO-RD-HGA16 cells were used.
(§1) Data Analysis: For calcium mobilization experiments, data were fit to a three-parameter logistic curve to generate IC50 values (GraphPad Prism 6.0, Graphpad Software, San Diego, California, United States of America). For [^35S]GTPγS experiments, data were normalized to maximal CP55,940 (100 nM) stimulation in the absence of test compound (i.e., vehicle=100%).

rats [3] = experiment: Locomotion in rats; type: in vivo, rat; details: 5.6 mg/kg i.p.
MDCK-mdr1 cells = experiment: Bidirectional MDCK-MDR1 permeability assay; type: in vitro ADME
Procedure: Permeability Assessment. Bidirectional MDCK-MDR1 permeability assay was performed by Paraza Pharma Inc. (Montreal, Canada). MDCK-mdr1 cells at passage 5 were seeded onto permeable polycarbonate supports in 12-well Costar Transwell plates and allowed to grow and differentiate for 3 days. On day 3, culture medium (DMEM supplemented with 10% FBS) was removed from both sides of the transwell inserts and cells were rinsed with warm HBSS. After the rinse step, the chambers were filled with warm transport buffer (HBSS containing 10 mM HEPES, 0.25% BSA, pH 7.4) and the plates were incubated at 37° C. for 30 min prior to TEER (Trans Epithelial Electric Resistance) measurements.
The buffer in the donor chamber (apical side for A-to-B assay, basolateral side for B-to-A assay) was removed and replaced with the working solution (10 μM test article in transport buffer). The plates were then placed at 37° C. under light agitation. At designated time points (30, 60 and 90 min), an aliquot of transport buffer from the receiver chamber was removed and replenished with fresh transport buffer. Samples were quenched with ice-cold ACN containing internal standard and then centrifuged to pellet protein. Resulting supernatants are further diluted with 50/50 ACN/H2O (H2O only for Atenolol) and submitted for LC-MS/MS analysis. Reported apparent permeability (Papp) values were calculated from single determination. Atenolol and propranolol were tested as low and moderate permeability references.
The apparent permeability (Papp, measured in cm/s) of a compound is determined according to the following formula from two independent experiments in duplicate: […]
where dQ/dt is the net rate of appearance in the receiver compartment; A is the area of the Transwell measured in cm^2 (1.12 cm^2); Ci is the initial concentration of compound added to the donor chamber; and 60 is the conversion factor for minute to second.

[4] = Kinetic solubility assessment; type: physicochemical; details: phosphate buffer solution, 2 hours at room temperature, target 400 μM
Procedure: The solution was agitated on a VX-2500 multi-tube vortexer (VWR International, Radnor, Pennsylvania, United States of America) for 2 hours at room temperature. Following agitation, the sample was filtrated on a glass-fiber filter (1 μm) and the eluate was diluted 400-fold with a mixture of acetonitrile: water (1:1). On each experimental occasion, nicardipine and imipramine were assessed as reference compounds for low and high solubility, respectively. All samples were assessed in triplicate and analyzed by LC-MS/MS using electrospray ionization against standards prepared in the same matrix.

Human CB1 [5] = target: T1, Human CB1; experiment: Human CB1 HEK293 membrane [35S]GTPγS binding assay; type: biochemical; details: HEK293 membranes expressing human CB1, in presence of CP55,940, mean ± SEM
Procedure: Non-specific binding was determined by adding 30 μM unlabeled GTPγS.
as §1

Mouse CB1 = Mouse CB1 (Mus musculus (Mouse), UniProt P47746); experiment: Mouse CB1 [35S]GTPγS binding assay (ICR mouse cerebellum membranes); type: biochemical; details: in presence of CP55,940, mean ± SEM
Mouse CB1, sequence (P47746 whole entry): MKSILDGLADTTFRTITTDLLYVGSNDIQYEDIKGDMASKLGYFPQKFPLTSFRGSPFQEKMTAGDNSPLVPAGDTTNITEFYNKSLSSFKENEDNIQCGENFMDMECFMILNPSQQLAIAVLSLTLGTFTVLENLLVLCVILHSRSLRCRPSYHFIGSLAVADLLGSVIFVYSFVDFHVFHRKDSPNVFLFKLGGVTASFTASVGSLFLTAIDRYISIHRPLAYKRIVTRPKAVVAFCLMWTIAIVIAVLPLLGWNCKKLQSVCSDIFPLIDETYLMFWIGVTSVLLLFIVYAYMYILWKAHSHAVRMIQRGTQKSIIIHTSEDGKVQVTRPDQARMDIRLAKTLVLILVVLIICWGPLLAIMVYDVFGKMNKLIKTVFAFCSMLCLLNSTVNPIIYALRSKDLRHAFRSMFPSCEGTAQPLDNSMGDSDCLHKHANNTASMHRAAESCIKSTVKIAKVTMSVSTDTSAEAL
Procedure: [^35S]GTPγS Binding Assay: For receptor signaling, membranes (10 μg protein) from either ICR mouse cerebellum mice (6-8 weeks old; Enviga International, Indianapolis, Indiana, United States of America) or HEK cells stably expressing CB1 receptor were preincubated in assay buffer for 10 min with 3 units/ml adenosine deaminase then incubated for 60 min at 30° C. with 30 μM GDP and 0.1 nM [^35S]GTPγS (Perkin Elmer Life Sciences, Boston, Massachusetts, United States of America). Non-specific binding was determined by adding 30 μM unlabeled GTPγS.
as §1

rats [6] = details: cited from earlier work
[7] = in vivo; cited from earlier work
rats [8] = details: 10 mg/kg; cited from earlier work

Compound: O=c1c(NCCc2cccc(Cl)c2)c(Nc2ccc(Cl)cc2)c1=O [Compound 7, 3-[(4-Chlorophenyl)amino]-4-{[2-(3-chlorophenyl)ethyl]amino}cyclobut-3-ene-1,2-dione]
microsomal CLint ([1]; NADPH, 37° C.): 34.7 µL/min/mg | half-life ([1]; NADPH, 37° C.): 40 min | Metabolic stability in rat liver microsomes compared with PSNCBAM-1 ([1]; versus PSNCBAM-1): better metabolic stability | % Plasma Protein Bound (Plasma protein binding): >99.74% | IC50 (Human CB1 [2]): 130 ± 12 nM | Effect on locomotion (rats [3]): without affecting locomotion | Effect on locomotion (rats [3]; listed as Compound 6): did not affect locomotion | Efflux ratio BA/AB (MDCK-mdr1 cells; MDCK-MDR1): 2.1 | Papp A to B (x10^-6 cm/s) (MDCK-mdr1 cells; MDCK-MDR1, 10 μM, apical to basolateral): 3.1 x10^-6 cm/s | Papp B to A (x10^-6 cm/s) (MDCK-mdr1 cells; MDCK-MDR1, 10 μM, basolateral to apical): 6.4 x10^-6 cm/s | solubility kinetic at 2 h [4]: <1 µM

microsomal CLint ([1]; NADPH, 37° C.): 59.6 µL/min/mg | half-life ([1]; NADPH, 37° C.): 23.7 min | % Plasma Protein Bound (Plasma protein binding): 99% | IC50 (Human CB1 [2]): 575 ± 100 nM | IC50 (Human CB1 [5]; read-out: Human CB1 HEK293 membrane [35S]GTPγS binding assay pIC50 ± SEM (converted)): 501 nM | IC50 (Mouse CB1; read-out: Mouse CB1 [35S]GTPγS binding assay pIC50 ± SEM (converted)): 110 nM | solubility kinetic at 2 h ([4]; aqueous buffer, kinetic from dmso stock): < 1 µM
Compound: O=c1c(Nc2ccc(Cl)cc2)c(Nc2cccc(-c3ccc(F)cc3)c2)c1=O [Compound 33, 3-[(4-Chlorophenyl)amino]-4-[(4′-fluorobiphenyl-3-yl)amino]cyclobut-3-ene-1,2-dione]

Compound: CC(=O)c1ccc(CCNc2c(Nc3ccc(Cl)cc3)c(=O)c2=O)cc1 [Compound 40, 3-{[2-(A-acetylphenyl)ethyl]amino}-4-[(4-chlorophenyl)amino]cyclobut-3-ene-1,2-dione]
IC50 (Human CB1 [2]): 350 ± 10 nM | Human CB1 HEK293 membrane [35S]GTPγS binding assay pIC50 ± SEM (Human CB1 [5]): 6.77 ± 0.04 | Mouse CB1 [35S]GTPγS binding assay pIC50 ± SEM (Mouse CB1): 6.70 ± 0.09

IC50 (Human CB1 [2]): 362 ± 30 nM | Human CB1 HEK293 membrane [35S]GTPγS binding assay pIC50 ± SEM (Human CB1 [5]): 6.84 ± 0.08 | Mouse CB1 [35S]GTPγS binding assay pIC50 ± SEM (Mouse CB1): 6.61 ± 0.19
Compound: O=c1c(NCCc2ccc(F)cc2F)c(Nc2ccc(Cl)cc2)c1=O [Compound 47, 3-[(4-Chlorophenyl)amino]-4-{[2-(2,4-difluorophenyl)ethyl]amino}cyclobut-3-ene-1,2-dione]

Compound: O=C(Nc1ccc(Cl)cc1)Nc1cccc(-c2cccc(N3CCCC3)n2)c1 [PSNCBAM-1, reference compound]
Rat Liver microsome T1/2 ([1]; 0.5 mg/mL protein, NADPH, 37° C.): 13 min | Food intake and body weight in rats (rats [6]): reduces food intake and body weight

Compound: N#Cc1ccc(NC(=O)Nc2cccc(-c3cccc(N4CCCC4)n3)c2)cc1 [RTICBM-28]
THC's potency in drug discrimination [7]: reduces THC's potency in drug discrimination

Compound: O=C(NCCc1cccc(Cl)c1)Nc1ccc(Cl)cc1 [RTICBM-189]
Drug-induced reinstatement of cocaine seeking in rats (rats [8]): attenuates drug-induced restatement of cocaine seeking
